Data as given in patent US20240239788A1, “SMALL MOLECULE INHIBITORS OF KRAS G12D MUTANT” (Merck Sharp & Dohme LLC, priority 2021, published 2024).
Structures can show the parent of a compound that is named as a salt. Where two headings read alike, the source gives them in different places.

Key:
[1] = target: KRAS protein containing G12D mutation (Homo sapiens (Human), UniProt P01116, G12D); test: SOS-catalyzed nucleotide exchange assay (GNE), TR-FRET; type: biochemical; settings: biotinylated KRAS G12D, SOS and GTP, 60-minute incubation
KRAS protein containing G12D mutation, sequence (P01116 other isoform, or with tags, fused parts or gaps G12D (already in the parent)): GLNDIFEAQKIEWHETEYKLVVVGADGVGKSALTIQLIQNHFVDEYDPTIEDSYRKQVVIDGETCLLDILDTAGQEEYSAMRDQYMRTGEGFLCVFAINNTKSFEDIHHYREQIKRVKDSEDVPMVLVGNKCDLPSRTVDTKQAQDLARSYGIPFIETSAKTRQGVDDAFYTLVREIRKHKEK
Description: Compounds are added to this complex and then after a 60-minute incubation time the mixture is treated with SOS and unlabeled GTP. Small molecule inhibitors stabilize the Bodipy-GDP complex whereas the untreated protein rapidly exchanges Bodipy-GDP for unlabeled GTP resulting in reduced TR-FRET signal.
This solution is referred to as biotinylated KRAS G12D stock solution.

[2] = system: AsPC-1 cells containing homozygous KRAS-G12D activating mutation; test: Cellular phospho-ERK assay with 10% FBS (Examples 107a-256); type: cell-based
Description: 5% CO2 for 2 hours. […] Assay plates were read on a EnVision Multimode Plate Reader (PerkinElmer) and the ratio of p-Erk vs total Erk in each well was used as the final readout.

[3] = read-out: IC50 (nM) pERK (cell with FBS 10%), AsPC-1 cells, 10% fetal bovine serum, 2 hours, ratio of p-Erk vs total Erk
[4] = Homo sapiens, ASPC1, 2 h, read-out: IC50 (nM) pERK (cell with FBS 10%), AsPC-1 cells, 10% fetal bovine serum, 2 hours, ratio of p-Erk vs total Erk
[5] = read-out: IC50 (nM) pERK (cell with FBS 10%), AsPC-1 cells, 10% fetal bovine serum, 2 hours, ratio of p-Erk vs total Erk, TFA

Structure (SMILES): C[C@]12CC[C@H](CN(c3nc(OC[C@@]45CCCN4C[C@H](F)C5)nc4c(F)c(-c5cc(N)c(F)c6cccc(Cl)c56)c(F)cc34)C1)N2 (single isomer, unassigned) [Ex. 163a]
- IC50 [1]: 47.5 nM
- IC50 [2, 3]: 2270 nM

Structure (SMILES): C[C@]12CC[C@H](CN(c3nc(OC[C@@]45CCCN4C[C@H](F)C5)nc4c(F)c(-c5cc(N)c(F)c6cccc(Cl)c56)c(F)cc34)C1)N2 (single isomer, unassigned) [Ex. 163b]
- IC50 [1]: 4740 nM
- IC50 [2, 3]: 35600 nM

Structure (SMILES): Cc1c(C(F)(F)F)c(-c2c(F)cc3c(N4CC5CCC(C4)N5)nc(OC[C@@]45CCCN4C[C@H](F)C5)nc3c2F)c2cn[nH]c2c1F (single isomer, unassigned) [Ex. 166a]
- IC50 [1]: 944 nM
- IC50 [2, 3]: 30000 nM

Structure (SMILES): Cc1c(C(F)(F)F)c(-c2c(F)cc3c(N4CC5CCC(C4)N5)nc(OC[C@@]45CCCN4C[C@H](F)C5)nc3c2F)c2cn[nH]c2c1F (single isomer, unassigned) [Ex. 166b]
- IC50 [1]: 4.4 nM
- IC50 [2, 3]: 152 nM

Structure (SMILES): C[C@]12CC[C@H](CN(c3nc(OC[C@@]45CCCN4C[C@H](F)C5)nc4c(F)c(-c5cncc6cccc(Cl)c56)c(F)cc34)C1)N2 (single isomer, unassigned) [Ex. 167]
- IC50 [1]: 414 nM
- IC50 [2, 4]: 8440 nM

Structure (SMILES): C#Cc1cccc2cc(O)cc(-c3c(F)cc4c(N5CC6CC[C@@](C)(C5)N6)nc(OCC5(CN6CC[C@@H](F)C6)CC5)nc4c3F)c12 (single isomer, unassigned) [Ex. 169]
- IC50 [1]: 0.7 nM
- IC50 ([2]; Homo sapiens, ASPC1, 2 h, read-out: IC50 (nM) pERK (cell with FBS 10%)): 73 nM

Structure (SMILES): C[C@]12CC[C@H](CN(c3nc(OC[C@@]45CCCN4C[C@H](F)C5)nc4c(F)c(-c5c(F)cc(F)c6oc(N)nc56)c(Cl)cc34)C1)N2 (single isomer, unassigned) [Ex. 170a]
- IC50 [1]: 4.72 nM
- IC50 [2, 3]: 1380 nM

Structure (SMILES): C[C@]12CC[C@H](CN(c3nc(OC[C@@]45CCCN4C[C@H](F)C5)nc4c(F)c(-c5c(F)cc(F)c6oc(N)nc56)c(Cl)cc34)C1)N2 (single isomer, unassigned) [Ex. 170b]
- IC50 [1]: 874 nM
- IC50 [2, 3]: 14900 nM

Structure (SMILES): C#Cc1cccc2cc(O)cc(-c3c(F)cc4c(N5C[C@H]6CC[C@@](C)(C5)N6)nc(OC)nc4c3F)c12 (single isomer, unassigned) [Ex. 171a, TFA]
- IC50 [1]: 1260 nM
- IC50 [2, 4]: 7720 nM

Structure (SMILES): C[C@]12CCC(CN(c3nc(OCC45CCCN4CC(C(F)F)C5)nc4c(F)c(-c5cc(O)cc6cccc(Cl)c56)c(F)cc34)C1)N2 (single isomer, unassigned) [Ex. 173-1a]
- IC50 [1]: 8.43 nM
- IC50 [2, 3]: 1570 nM

Structure (SMILES): C[C@]12CCC(CN(c3nc(OCC45CCCN4CC(C(F)F)C5)nc4c(F)c(-c5cc(O)cc6cccc(Cl)c56)c(F)cc34)C1)N2 (single isomer, unassigned) [Ex. 173-1b]
- IC50 [1]: 22.1 nM
- IC50 [2, 3]: 2890 nM

Structure (SMILES): C[C@]12CCC(CN(c3nc(OCC45CCCN4CC(C(F)F)C5)nc4c(F)c(-c5cc(O)cc6cccc(Cl)c56)c(F)cc34)C1)N2 (single isomer, unassigned) [Ex. 173-2a]
- IC50 [1]: 266 nM
- IC50 [2, 3]: 10200 nM

Structure (SMILES): C[C@]12CCC(CN(c3nc(OC[C@@H]4CC[C@H]5CC(F)(F)CCN45)nc4c(F)c(-c5cc(O)cc6cccc(Cl)c56)c(F)cc34)C1)N2 (single isomer, unassigned) [Ex. 175a]
- IC50 [1]: 738 nM
- IC50 [2, 4]: 6450 nM

Structure (SMILES): C[C@@]12CC[C@H](CN(c3nc(OC[C@@]45CCCN4C[C@H](F)C5)nc4c(F)c(-c5cc(O)cc6ccc(F)c(Cl)c56)c(F)cc34)C1)N2 (single isomer, unassigned) [Ex. 176a]
- IC50 [1]: 1.91 nM
- IC50 [2, 4]: 400 nM

Structure (SMILES): C[C@@]12CC[C@H](CN(c3nc(OC[C@@]45CCCN4C[C@H](F)C5)nc4c(F)c(-c5cc(O)cc6ccc(F)c(Cl)c56)c(F)cc34)C1)N2 (single isomer, unassigned) [Ex. 176b]
- IC50 [1]: 110 nM
- IC50 [2, 4]: 4360 nM

Structure (SMILES): C#Cc1c(F)ccc2cc(O)cc(-c3c(F)cc4c(N5CC6CC[C@@](C)(C5)N6)nc(OC[C@@]56CCCN5C[C@H](F)C6)nc4c3F)c12 (single isomer, unassigned) [Ex. 177a]
- IC50 [1]: 0.8 nM
- IC50 [2, 3]: 12.7 nM

Structure (SMILES): C#Cc1c(F)ccc2cc(O)cc(-c3c(F)cc4c(N5CC6CC[C@@](C)(C5)N6)nc(OC[C@@]56CCCN5C[C@H](F)C6)nc4c3F)c12 (single isomer, unassigned) [Ex. 177b]
- IC50 [1]: 51.7 nM
- IC50 [2, 3]: 588 nM

Structure (SMILES): CCc1cccc2cc(O)cc(-c3c(F)cc4c(N5CC6CC[C@@](C)(C5)N6)nc(OC[C@@]56CCCN5C[C@H](F)C6)nc4c3F)c12 (single isomer, unassigned) [Ex. 178a]
- IC50 [1]: 1.73 nM
- IC50 [2, 3]: 108 nM

Structure (SMILES): CCc1cccc2cc(O)cc(-c3c(F)cc4c(N5CC6CC[C@@](C)(C5)N6)nc(OC[C@@]56CCCN5C[C@H](F)C6)nc4c3F)c12 (single isomer, unassigned) [Ex. 178b]
- IC50 [1]: 210 nM
- IC50 [2, 3]: 4580 nM

Structure (SMILES): C[C@]12CCC(CN(c3nc(OC[C@@]45CCCN4C[C@H](F)C5)nc4c(F)c(-c5cc(O)cc6cc(F)cc(Cl)c56)c(F)cc34)C1)N2 (single isomer, unassigned) [Ex. 180a]
- IC50 [1]: 6.48 nM
- IC50 [2, 3]: 1040 nM

Structure (SMILES): C[C@]12CCC(CN(c3nc(OC[C@@]45CCCN4C[C@H](F)C5)nc4c(F)c(-c5cc(O)cc6cc(F)cc(Cl)c56)c(F)cc34)C1)N2 (single isomer, unassigned) [Ex. 180b]
- IC50 [1]: 744 nM
- IC50 [2, 3]: 14200 nM

Structure (SMILES): C[C@]12CCC(CN(c3nc(OC[C@@]45CCCN4C[C@H](F)C5)nc4c(F)c(-c5cc(O)cc(Cl)c5C(F)(F)F)c(F)cc34)C1)N2 (single isomer, unassigned) [Ex. 183a]
- IC50 [1]: 347 nM
- IC50 [2, 3]: 6070 nM

Structure (SMILES): C[C@]12CCC(CN(c3nc(OC[C@@]45CCCN4C[C@H](F)C5)nc4c(F)c(-c5cc(O)cc(Cl)c5C(F)(F)F)c(F)cc34)C1)N2 (single isomer, unassigned) [Ex. 183b]
- IC50 [1]: 3.95 nM
- IC50 [2, 3]: 190 nM

Structure (SMILES): C[C@@]12CC[C@H](CN(c3nc(OC[C@@]45CCCN4C[C@H](F)C5)nc4c(F)c(-c5cc(O)cc6cccc(F)c56)c(F)cc34)C1)N2 (single isomer, unassigned) [Ex. 186a]
- IC50 [1]: 1.49 nM
- IC50 [2, 3]: 180 nM

Structure (SMILES): C[C@@]12CC[C@H](CN(c3nc(OC[C@@]45CCCN4C[C@H](F)C5)nc4c(F)c(-c5cc(O)cc6cccc(F)c56)c(F)cc34)C1)N2 (single isomer, unassigned) [Ex. 186b]
- IC50 [1]: 185 nM
- IC50 [2, 3]: 3780 nM

Structure (SMILES): Nc1cc2cccc(Cl)c2c(-c2c(F)cc3c(N4CC5CCC(C4)N5)nc(OC[C@@]45CCCN4C[C@H](F)C5)nc3c2F)n1 (single isomer, unassigned) [Ex. 189a]
- IC50 [1]: 12.8 nM
- IC50 [2, 4]: 672 nM

Structure (SMILES): C#Cc1cccc2cccc(-c3c(F)cc4c(N5CC6(C)CCC(C)(C5)N6)nc(OC[C@@]56CCCN5C[C@H](F)C6)nc4c3F)c12 (single isomer, unassigned) [Ex. 190a, TFA]
- IC50 [1]: 2510 nM
- IC50 [2, 5]: 30000 nM

Structure (SMILES): C#Cc1cccc2cccc(-c3c(F)cc4c(N5CC6(C)CCC(C)(C5)N6)nc(OC[C@@]56CCCN5C[C@H](F)C6)nc4c3F)c12 (single isomer, unassigned) [Ex. 190b, TFA]
- IC50 [1]: 72 nM
- IC50 [2, 5]: 5830 nM

Structure (SMILES): Cc1nc(N)c(C)c(-c2c(F)cc3c(N4CC5CCC(C4)N5)nc(OC[C@@]45CCCN4C[C@H](F)C5)nc3c2F)c1C(F)(F)F (single isomer, unassigned) [Ex. 191a]
- IC50 [1]: 26.5 nM
- IC50 [2, 3]: 288 nM

Structure (SMILES): Cc1nc(N)c(C)c(-c2c(F)cc3c(N4CC5CCC(C4)N5)nc(OC[C@@]45CCCN4C[C@H](F)C5)nc3c2F)c1C(F)(F)F (single isomer, unassigned) [Ex. 191b]
- IC50 [1]: 2840 nM
- IC50 [2, 3]: 30000 nM
